According to ChEMBL document CHEMBL1136456, “Synthesis and biological evaluation of benzazepine oxazolidinone antibacterials” (2003):
In brackets after ≈: the same amount, converted by molar mass.

Tests used:
Format in all cases: functional
[1] = test system: Staphylococcus epidermidis; assay: Antibacterial activity against Methicillin-resistant Staphylococcus epidermidis UC12084 (S. e)
Enterococcus faecalis = assay: Antibacterial activity against Enterococcus faecalis UC9217 (E. f)
Staphylococcus aureus [2] = assay: Antibacterial activity against Methicillin-suceptible Staphylococcus aureus UC9218
Haemophilus influenzae = assay: Antibacterial activity against Haemophilus influenzae UC30063 (Haemophilus influenzae)
Streptococcus pneumoniae = assay: Antibacterial activity against Streptococcus pneumoniae UC9912 (S.p)
Mus musculus = assay: Dose (administered orally) required to protect the Staphylococcus aureus infected mice was determined; details: po
Moraxella catarrhalis = assay: Antibacterial activity against Moraxella catarrhalis UC30610 (M. cat)
Staphylococcus aureus [3] = assay: Antibacterial activity against Methicillin-resistant Staphylococcus aureus UC6685 (S. a.)

| SMILES | MIC [1] [µg/mL] | MIC (Enterococcus faecalis) [µg/mL] | MIC (Staphylococcus aureus [2]) [µg/mL] | MIC (Haemophilus influenzae) [µg/mL] | MIC (Streptococcus pneumoniae) [µg/mL] | ED50 (Mus musculus) [mg/kg/day] | MIC (Moraxella catarrhalis) [µg/mL] | MIC (Staphylococcus aureus [3]) [µg/mL] |
| --- | --- | --- | --- | --- | --- | --- | --- | --- |
| CC(=O)NC[C@H]1CN(c2ccc3c(c2)CCCN(C(C)=O)C3)C(=O)O1 | 4 (≈ 11.6 µM) | 8 (≈ 23.2 µM) | 8 (≈ 23.2 µM) | > 64 | 2 (≈ 5.79 µM) |  |  |  |
| CC(=O)NC[C@H]1CN(c2ccc3c(c2)CCCN(C=O)C3)C(=O)O1 | 2 (≈ 6.04 µM) | 2 (≈ 6.04 µM) | 1 (≈ 3.02 µM) | 32 (≈ 96.6 µM) | 1 (≈ 3.02 µM) | 8.1 | 4 (≈ 12.1 µM) | 1 (≈ 3.02 µM) |
| CC(=O)NC[C@H]1CN(c2ccc3c(c2)CCN(S(C)(=O)=O)CC3)C(=O)O1 | 16 (≈ 41.9 µM) | 32 (≈ 83.9 µM) | 16 (≈ 41.9 µM) | 32 (≈ 83.9 µM) | 8 (≈ 21 µM) |  | > 64 |  |
| CC(=O)NC[C@H]1CN(c2ccc3c(c2)CCN(C(C)=O)CC3)C(=O)O1 | 1 (≈ 2.9 µM) | 2 (≈ 5.79 µM) | 4 (≈ 11.6 µM) | 64 (≈ 185 µM) | 1 (≈ 2.9 µM) |  |  |  |
| CC(=O)NC[C@H]1CN(c2ccc3c(c2)CCCCN3)C(=O)O1 | 16 (≈ 52.7 µM) | 64 (≈ 211 µM) | 64 (≈ 211 µM) | > 64 | 16 (≈ 52.7 µM) |  | > 64 | 32 (≈ 105 µM) |
| CC(=O)NC[C@H]1CN(c2ccc3c(c2)CCCN(C(=O)NC(C)C)C3)C(=O)O1 | 32 (≈ 82.4 µM) | 32 (≈ 82.4 µM) | 64 (≈ 165 µM) | > 64 | 8 (≈ 20.6 µM) |  |  |  |
| CC(=O)NC[C@H]1CN(c2ccc3c(c2)CCNCC3)C(=O)O1 | 8 (≈ 26.4 µM) | 32 (≈ 105 µM) | 32 (≈ 105 µM) | > 64 | 8 (≈ 26.4 µM) |  | > 64 | 64 (≈ 211 µM) |
| CC(=O)NC[C@H]1CN(c2ccc3c(c2)CCCCN3C(=O)CO)C(=O)O1 | 8 (≈ 22.1 µM) | 64 (≈ 177 µM) | 64 (≈ 177 µM) | > 64 | 8 (≈ 22.1 µM) |  | > 64 | 32 (≈ 88.5 µM) |
| CC(=O)NC[C@H]1CN(c2ccc3c(c2)CCCCN3C(=O)OCc2ccccc2)C(=O)O1 | > 64 | > 64 | > 64 | > 64 | > 64 |  | > 64 |  |
| CC(=O)NC[C@H]1CN(c2ccc3c(c2)CCCN(C(=O)OCc2ccccc2)C3)C(=O)O1 | 16 (≈ 36.6 µM) | 32 (≈ 73.1 µM) | 16 (≈ 36.6 µM) | > 64 | 8 (≈ 18.3 µM) |  |  |  |
| COC(=O)N1CCCc2cc(N3C[C@H](CNC(C)=O)OC3=O)ccc2C1 | 2 (≈ 5.53 µM) | 4 (≈ 11.1 µM) | 8 (≈ 22.1 µM) | > 64 | 2 (≈ 5.53 µM) |  |  |  |
| CC(=O)NC[C@H]1CN(c2ccc3c(c2)CCCN(C(=O)CO)C3)C(=O)O1 | 1 (≈ 2.77 µM) | 4 (≈ 11.1 µM) | 4 (≈ 11.1 µM) | 64 (≈ 177 µM) | 1 (≈ 2.77 µM) |  | 16 (≈ 44.3 µM) | 4 (≈ 11.1 µM) |
| CC(=O)NC[C@H]1CN(c2ccc3c(c2)CCCCN3C=O)C(=O)O1 | < 0.05 | 2 (≈ 6.04 µM) | 2 (≈ 6.04 µM) | 16 (≈ 48.3 µM) | < 0.05 |  | 4 (≈ 12.1 µM) | 2 (≈ 6.04 µM) |
| CC(=O)NC[C@H]1CN(c2ccc3c(c2)CCN(C(=O)Cc2ccccc2)CC3)C(=O)O1 | 1 (≈ 2.37 µM) | 2 (≈ 4.74 µM) | 4 (≈ 9.49 µM) | > 64 | 1 (≈ 2.37 µM) |  |  |  |
| CC(=O)NC[C@H]1CN(c2ccc3c(c2)NCCCC3)C(=O)O1 | 8 (≈ 26.4 µM) | 32 (≈ 105 µM) | 32 (≈ 105 µM) | > 64 | 8 (≈ 26.4 µM) |  | > 64 | 16 (≈ 52.7 µM) |
| CC(=O)NC[C@H]1CN(c2ccc3c(c2)CCN(C(=O)CO)CC3)C(=O)O1 | 1 (≈ 2.77 µM) | 4 (≈ 11.1 µM) | 2 (≈ 5.53 µM) | 32 (≈ 88.5 µM) | < 0.05 | 8.5 | 8 (≈ 22.1 µM) | 2 (≈ 5.53 µM) |
| CC(=O)NC[C@H]1CN(c2ccc3c(c2)CCN(C(=O)OCc2ccccc2)CC3)C(=O)O1 | 1 (≈ 2.29 µM) | 4 (≈ 9.14 µM) | 4 (≈ 9.14 µM) | > 64 | < 0.05 |  | 16 (≈ 36.6 µM) | 2 (≈ 4.57 µM) |
| CC(=O)NC[C@H]1CN(c2ccc3c(c2)CCN(C(=O)c2ccccc2)CC3)C(=O)O1 | 1 (≈ 2.45 µM) | 2 (≈ 4.91 µM) | 8 (≈ 19.6 µM) | > 64 | 1 (≈ 2.45 µM) |  |  |  |
| COC(=O)N1CCc2ccc(N3C[C@H](CNC(C)=O)OC3=O)cc2CC1 | 1 (≈ 2.77 µM) | 2 (≈ 5.53 µM) | 4 (≈ 11.1 µM) | > 64 | 1 (≈ 2.77 µM) |  |  |  |
| CC(=O)NC[C@H]1CN(c2ccc3c(c2)CCCNC3)C(=O)O1 | 32 (≈ 105 µM) | > 64 | > 64 | > 64 | 8 (≈ 26.4 µM) |  | > 64 |  |
| CC(=O)NC[C@H]1CN(c2ccc3c(c2)N(C=O)CCCC3)C(=O)O1 | > 64 | > 64 | > 64 | > 64 | > 64 |  | > 64 |  |
| CC(=O)NC[C@H]1CN(c2ccc3c(c2)CCCN(C(=O)Nc2ccccc2)C3)C(=O)O1 | 4 (≈ 9.47 µM) | 4 (≈ 9.47 µM) | 16 (≈ 37.9 µM) | 64 (≈ 151 µM) | 1 (≈ 2.37 µM) |  |  |  |
| CC(=O)NC[C@H]1CN(c2ccc3c(c2)CCCN(C(=O)Cc2ccccc2)C3)C(=O)O1 | 8 (≈ 19 µM) | 16 (≈ 38 µM) | 32 (≈ 75.9 µM) | > 64 | 4 (≈ 9.49 µM) |  |  |  |
| CC(=O)NC[C@H]1CN(c2ccc3c(c2)CCN(C=O)CC3)C(=O)O1 | < 0.05 | 4 (≈ 12.1 µM) | 4 (≈ 12.1 µM) | > 64 | < 0.05 |  | 8 (≈ 24.1 µM) | 2 (≈ 6.04 µM) |
| CC(=O)NC[C@H]1CN(c2ccc3c(c2)CCN(C(=O)Oc2ccccc2)CC3)C(=O)O1 | 2 (≈ 4.72 µM) | 4 (≈ 9.45 µM) | 4 (≈ 9.45 µM) | > 64 | 2 (≈ 4.72 µM) |  |  |  |
| CC(=O)NC[C@H]1CN(c2ccc3c(c2)CCCN(C(=O)NCCc2ccccc2)C3)C(=O)O1 | 32 (≈ 71 µM) | 32 (≈ 71 µM) | 64 (≈ 142 µM) | > 64 | 8 (≈ 17.8 µM) |  |  |  |
| CC(=O)NC[C@H]1CN(c2ccc(N3CCOCC3)c(F)c2)C(=O)O1 [LINEZOLID] | 1 (≈ 2.96 µM) |  |  | 16 (≈ 47.4 µM) |  | 5.6 | 8 (≈ 23.7 µM) |  |
